According to patent US20080039442A1, “Compounds With Kv4 Ion Channel Activity” (Devgen NV, priority 2004, published 2008):
Where two headings read alike, the source gives them in different places.

How the values were obtained:
[1] = target: T1, human Kv4.3 (Homo sapiens, UniProt Q9UK17); test: Electropharyngeogram (EPG) analysis of dissected pharynxes of transgenic C. elegans strain UG1755; assay type: ex vivo, transgenic C. elegans expressing human Kv4.3
T1 construct: expressed in transfected cells; host or cells: transgenic C. elegans strain UG1755 (plasmid pGV8 integrated; expression in the pharynx)
T1 sequence (Q9UK17 1-655): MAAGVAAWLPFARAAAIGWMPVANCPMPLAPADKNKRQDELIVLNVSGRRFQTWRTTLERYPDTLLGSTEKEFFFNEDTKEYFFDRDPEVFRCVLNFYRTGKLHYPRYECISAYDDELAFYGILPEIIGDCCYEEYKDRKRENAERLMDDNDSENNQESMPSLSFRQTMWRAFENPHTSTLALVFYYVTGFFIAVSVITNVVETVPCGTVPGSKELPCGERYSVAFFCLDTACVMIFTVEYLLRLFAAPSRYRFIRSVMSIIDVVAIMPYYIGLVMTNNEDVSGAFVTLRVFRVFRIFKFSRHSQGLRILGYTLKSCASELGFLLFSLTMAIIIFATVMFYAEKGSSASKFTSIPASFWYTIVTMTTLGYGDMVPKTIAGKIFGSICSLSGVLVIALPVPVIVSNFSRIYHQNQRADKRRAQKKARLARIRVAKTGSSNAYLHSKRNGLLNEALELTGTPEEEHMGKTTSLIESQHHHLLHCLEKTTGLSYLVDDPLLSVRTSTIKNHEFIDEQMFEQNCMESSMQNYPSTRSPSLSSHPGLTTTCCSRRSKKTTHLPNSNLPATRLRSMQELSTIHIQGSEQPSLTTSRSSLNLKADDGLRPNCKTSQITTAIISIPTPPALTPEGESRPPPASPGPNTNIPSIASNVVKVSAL
Experimental: The method to describe the construction of a transgenic C. elegans strain expressing human Kv4.3 has been described in WO 03/097682. Briefly, the actual used strain UG1755 has been generated by microinjection into the gonad of a wild-type strain N2 with a mix of 5 ng/μl plasmid pGV8 (human Kv4.3), 20 ng/μl pDW2821 (GFP-marker) and 40 ng/μl genomic C. elegans DNA. Transgenic animals have been isolated and submitted to integration of the extra-chromosomal array into the genome of C. elegans. A line with 50% transmission of the functional expressed human Kv4.3 has been mutagenized with gamma irradiation using a Cobalt source. About 12000 F2 animals have been singled out and their progeny has been screened for the 100% transmission of the GFP marker. Lines with 100% transmission of GFP have been considered as potentially integrated. These lines have been further tested and out-crossed with N2 strain two-times. All lines obtained have been tested for viability, GFP and human Kv4.3 expression. At the end of a selection process, UG1755 was identified as most suitable C. elegans strain amenable to high throughput screening (HTS). […] Briefly, dissected pharynxes of UG1755 C. elegans animals have been prepared and Electropharyngeograms (EPGs) have been recorded using an Axopatch-1D amplifier (Axon instruments). […] The number of ultra short EPGs (10-20 ms) and normal EPGs (100-200 ms) has been analyzed and given as ratio in percentage. […] In addition standard qRT-PCR confirmed the presence of the human Kv4.3 transgene in UG1755 as well as human Kv4.3 protein has been detected with the human Kv4.3 antibody P 0358 in the pharynx of UG1755 animals.
Introducing the human Kv4.3 channel into the C. elegans pharynx influences the C. elegans action potential in a characteristic fashion. […] The pumping end-point can be technically translated into a high-throughput read-out by the use of a pro-fluorescent dye. […] After a defined incubation period, the change of fluorescence intensity in the intestine can be measured with a plate reader.

[2] = target: T2, human Kv4.3/KChIP2.2 potassium channel (Homo sapiens, UniProt Q9UK17); test: Whole cell patch clamp, CHO-K1 cells stably expressing Kv4.3/KChIP2.2; assay type: cell-based; settings: CHO-K1, 1 μM
T2 construct: expressed in transfected cells
T2 sequence (Q9UK17 1-655): T1 sequence (Q9UK17 1-655)
T2 sequence (Q9NS61 1-270 partner): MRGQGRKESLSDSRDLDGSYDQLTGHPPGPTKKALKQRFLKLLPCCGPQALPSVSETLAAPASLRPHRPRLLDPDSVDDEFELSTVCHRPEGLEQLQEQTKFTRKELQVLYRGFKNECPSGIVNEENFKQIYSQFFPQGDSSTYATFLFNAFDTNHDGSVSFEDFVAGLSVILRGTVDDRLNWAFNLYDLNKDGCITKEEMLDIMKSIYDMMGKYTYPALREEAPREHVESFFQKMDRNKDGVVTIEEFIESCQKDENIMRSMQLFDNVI
Summary of the method: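 Whole-cell patch clamp at 20-25 °C, bath pH 7.4 with 4 mM KCl, pipette 130 mM KCl/10 mM EGTA/5 mM Na2ATP. Compound at […] (≤0.1% DMSO), n=2; pulses from −100 mV to +40 mV for 300 ms at 0.1 Hz, P/n (n=5) leak-corrected, cells with 1–50 nA currents only.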

[3] = target: hERG potassium channel (Homo sapiens, UniProt Q12809); test: Whole cell patch clamp, HEK 293 T-REx HERG cells
hERG potassium channel, sequence (Q12809 whole entry): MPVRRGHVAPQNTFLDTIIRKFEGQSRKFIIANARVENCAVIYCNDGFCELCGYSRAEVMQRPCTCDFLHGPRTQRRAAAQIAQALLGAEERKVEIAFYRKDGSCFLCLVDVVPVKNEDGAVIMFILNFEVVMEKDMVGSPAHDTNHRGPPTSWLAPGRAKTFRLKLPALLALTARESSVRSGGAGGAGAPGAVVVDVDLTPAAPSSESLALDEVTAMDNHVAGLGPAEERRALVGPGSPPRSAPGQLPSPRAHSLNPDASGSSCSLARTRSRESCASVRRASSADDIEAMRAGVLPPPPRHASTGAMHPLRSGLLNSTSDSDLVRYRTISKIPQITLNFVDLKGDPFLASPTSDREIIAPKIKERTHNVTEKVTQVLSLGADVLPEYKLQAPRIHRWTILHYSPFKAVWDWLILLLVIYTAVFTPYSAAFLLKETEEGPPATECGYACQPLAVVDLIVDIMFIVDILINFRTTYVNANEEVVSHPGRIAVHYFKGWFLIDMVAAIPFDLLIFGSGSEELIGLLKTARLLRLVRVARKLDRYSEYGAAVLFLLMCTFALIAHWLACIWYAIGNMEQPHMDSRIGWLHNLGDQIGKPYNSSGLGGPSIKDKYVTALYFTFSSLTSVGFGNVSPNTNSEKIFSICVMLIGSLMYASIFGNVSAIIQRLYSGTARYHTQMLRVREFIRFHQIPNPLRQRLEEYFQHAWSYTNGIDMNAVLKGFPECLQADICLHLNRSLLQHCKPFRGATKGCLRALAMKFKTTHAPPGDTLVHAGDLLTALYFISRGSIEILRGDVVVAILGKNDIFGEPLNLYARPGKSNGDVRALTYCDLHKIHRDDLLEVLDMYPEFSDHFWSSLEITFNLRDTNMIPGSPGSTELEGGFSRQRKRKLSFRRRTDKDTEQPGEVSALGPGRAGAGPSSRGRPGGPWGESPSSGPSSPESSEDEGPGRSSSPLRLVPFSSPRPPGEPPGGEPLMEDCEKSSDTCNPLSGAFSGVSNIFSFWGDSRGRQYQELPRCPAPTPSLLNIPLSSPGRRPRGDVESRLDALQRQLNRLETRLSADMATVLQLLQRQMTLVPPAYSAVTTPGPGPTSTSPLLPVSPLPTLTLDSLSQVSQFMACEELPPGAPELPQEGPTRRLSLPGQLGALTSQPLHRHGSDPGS
Description: For this experiment HEK 293 T-REx HERG cells (#23) were used. This cell line made by IonGate is characterized by the inducible expression of the hERG gene. The T-REx™ System (Invitrogen, Karlsruhe, Germany) is a tetracycline-regulated mammalian expression system that uses regulatory elements from the E. coli Tn10-encoded tetracycline (Tet) resistance operon. In the absence of Tet the expression is repressed. Tetracycline regulation in the T-REx™ System is based on the binding of tetracycline to the Tet repressor and derepression of the promoter controlling expression of the hERG gene. Addition of Tet to the cell culture media results in expression of the hERG potassium channel.
To construct the HEK 293 T-REx HERG cell line, the hERG gene was ligated into the inducible expression vector pcDNA4/TO (→pc4TO-HERG) and transfected into HEK 293 T-REx cells (this cell line stably expresses the Tet repressor and was purchased at Invitrogen). Stable cell clones were isolated after selection with Blasticidin (5 μg/ml) and Zeocin™ (300 μg/ml). The clones were electrophysiological characterized after induction with 1 μg/ml Tet.
Experiments were performed using the patch clamp set-up. Technical equipment needed for manipulation of the cells was placed on a vibration-isolated table and shielded with a Faraday cage to minimize electrical noise. The amplifier and control system were placed in a rack outside the Faraday cage. The system consisted of an EPC9 or EPC10 patch clamp amplifier (HEKA, Lambrecht, Germany), and the perfusion system DADVC8 (ALA Scientific, New York, USA) controlled by the Pulse software package (HEKA, Lambrecht, Germany) installed on a personal computer.
The cells used for this experiment were kept in continuous culture under standard conditions (37° C., air supplemented with 5% CO2). The HEK 293 T-REx HERG cells were kept in minimal essential medium (MEM) supplemented with 100 U/ml Penicillin, 100 μg/ml Streptomycin, 10% fetal calf serum (FCS), 1% non-essential amino acids (NEAA), 2.5 μg/ml amphotericin, 300 μg/ml Zeocin™ and 5 μg/ml Blasticidin. Cells were passed every 3-4 days after detachment using a Trypsin solution. The quality of the cultured cells was guaranteed by vitality and contamination tests.
At least 18 hours prior to electrophysiological experiments the cells were detached by application of iced PBS (phosphate buffered saline) or Trypsin and replated on cover slips. 1 μg/ml Tet was added to the cells to induce hERG expression.
Activity of the cardiac hERG channel was investigated using the patch clamp technique in its whole cell mode. This means that the current needed for clamping the whole cell expressing the K^+-channel protein to a specific potential was measured. The pipettes used for patch clamping were made of borosilicate glass. Measurements were performed at room temperature (20-25° C.). In each experiment (i.e. each cell) only one concentration of the compound was investigated—no cumulative dosages were performed. Each cell acted as its own control. The effect of the compounds on hERG mediated currents was investigated at one concentration (10 μM) with two replicates each (c=1, n=2).
Between voltage pulses the cell was clamped to a holding potential of −80 mV (inside).
(b) and (c) were used to characterize the properties of the hERG channel and to check the quality of the individual patch clamp experiment (voltage control). Each test protocol consisted of 6 segments.

[4] = read-out: Kv4.3 charge in %: remaining current measured after application of the compound and relative to the blank
[5] = read-out: Kv4.3 peak in %: remaining peak height measured after application of the compound and relative to the blank

SMILES | ultra short action potentials of the human Kv4.3 transgenic C. elegans pharynx (result in words) [1] | remaining activity at 1 µM [2, 4] [%] | remaining activity at 1 µM [2, 5] [%] | melting point [°C] | hERG (%) ([3]; 10 μM) | hERG (%) ([3]; at 1 μM) [% at 1 μM] | After Application of Compound Ratio Ultra short to Normal EPGs in % ([1]; strain UG1755, 100 μM, n = 15, before application 83 ± 13) [%]
Nc1ccncc1 [4-aminopyridine] | restored to normal action potentials |  |  |  |  |  | 
COc1ccc(CNC(=O)c2cc3cc(Cl)ccc3n2C)c(OC)c1 [Compound 19, 5-chloro-1-methyl-1H-indole-2-carboxylic acid 2,4-dimethoxy-benzylamide] |  | 44 | 87 | 150.8 to 152.7 | 35 |  | 
COc1ccc(CNC(=O)c2sc3ccc(Cl)cc3c2C)c(OC)c1 [Compound 21] |  | 50 | 92 | 146.8 to 147.8 | 100 |  | 
COc1ccc(CNC(=O)c2oc3ccccc3c2C)c(OC)c1 [Compound 43, 3-methyl-benzofuran-2-carboxylic acid 2,4-dimethoxy-benzylamide] |  | 70 | 94 | 110.7 to 111.5 | 61 |  | 
O=C(OCc1ccccc1)c1cc2cc(Cl)ccc2o1 [Compound 44, 5-chloro-benzofuran-2-carboxylic benzyl ester] |  | 45 | 80 | 76.9 to 77.3 | 28 |  | 
O=C(NCc1ccc2c(c1)OCO2)c1cc2cc(Cl)ccc2o1 [Compound 92] |  | 64 | 91 | 144 to 145.9 |  | 88 | 
O=C(NCC1CCCCN1)c1cc(OCC(F)(F)F)ccc1OCC(F)(F)F (centres unmarked) [Flecainide] | restored to normal action potentials |  |  |  |  |  | 53 ± 24
